# Laboratory results taken from patent publication US20230092762A1, “THERAPEUTIC DELIVERY OF LOCKED NUCLEIC ACID CONJUGATED ANTISENSE MIR-1” (THE TRUSTEES OF INDIANA UNIVERSITY, priority 2020, published 2023).
# Key:
# breast cancer stem cells = conditions: phase I trial; cited from earlier work
# human keratinocytes [1] = test: Measurement of mitochondrial membrane potential (JC-1 flow cytometry; TMRM/PMPI); assay type: cell-based
# Protocol: Measurement of Mitochondrial Membrane Potential. Mitochondrial membrane potential changes were assessed by two different techniques, a) using the lipophilic cationic dye JC-1 (MitoProbe JC-1 Assay Kit for Flow Cytometry, Life technologies) per manufacturer's instruction by flow cytometer. Mitochondrial membrane potential was also evaluated b) using TMRM/PMPI after 48 hours of control/[…] mimic transfection. The images were captured by confocal microscope and the quantification of fluorescent intensity was measured using FV1000 software (Olympus, Tokyo, Japan).
# human keratinocytes [2] = test: Respirometry assay (OCR, XF-96 Seahorse); assay type: cell-based; conditions: 20 μM, 24 h, vs vehicle control
# Protocol: Respirometry Assay. The Oxygen Consumption Rate (OCR) measurements were performed using a Seahorse Bioscience XF-96 instrument. A day prior to the experiment, the sensor cartridge was hydrated overnight using the calibration buffer supplied by the manufacturer. The transfected cells were seeded in the 96 well microplate supplied by the company. On the day of the experiment, the cells were washed with the calibrant buffer twice and incubated with glucose free DMEM for 2 h at 37° C. in a CO2 free incubator. The injection ports of the sensors were filled with 20 μL of treatment or vehicle in buffer. The sensor was then placed into the XF-96 instrument and calibrated. After calibration, the calibration fluid plate was replaced with the cell plate. The measurement cycle consisted of a 2 min mix, 1 min wait, and a 2 min measurement. Four basal rate measurements were followed with injections and each injection is followed by four measurement cycles. The consumption rates were calculated from the continuous average slope of the O2 decreases using a compartmentalization model. For any one treatment, the rates from 10 wells were used. Rates for the wells were normalized for protein content. All average rates were normalized to the vehicle control basal and t-tests between control and treatment were used to assess statistical significance.
# BAX = test: Western blot analysis of BAX in human keratinocytes; assay type: cell-based; conditions: 20 μM, 24 h
# Protocol: Western Blot Analysis. Immunoblotting was performed using HaCaT cell and wound tissue lysates. After protein extraction, the protein concentration was determined by BCA protein assay as described earlier. The samples (10-20 μg of protein/lane) were separated on a 4-12% SDS polyacrylamide gel electrophoresis and probed with rabbit polyclonal anti-notch1 […] antibody (1:1000 dilution, Abcam, Cambridge, Mass.), rabbit polyclonal anti-BAX antibody (1:1000 dilution, Abcam, Cambridge, Mass.), HRP conjugated anti-GAPDH (1:10,000 dilution). Bands were visualized by horseradish peroxidase-conjugated anti-rabbit-IgG raised in donkey and horseradish peroxidase-conjugated anti-mouse-IgG raised in sheep (Amersham Biosciences, Piscataway, N.J.) at 1:2,000 dilution and the enhanced chemiluminescence assay (Amersham Biosciences, Piscataway, N.J.).
structure (smiles),measurement,setting,value
O=C(O)CC[C@H]1CC[C@@](c2cc(F)ccc2F)(S(=O)(=O)c2ccc(Cl)cc2)CC1 [MK-0752],breast cancer stem cells,breast cancer stem cells,reduction of breast cancer stem cells
same,JC-1 green fluorescence (compromised ΔΨ),"human keratinocytes [1]; JC-1, 20 μM, 24 h",significant increase in JC-1 green fluorescence
same,TMRM fluorescence,"human keratinocytes [1]; TMRM and PMPI staining, 20 μM, 24 h",significant decrease in TMRM fluorescence
same,mitochondrial membrane potential (ΔΨ),human keratinocytes [1]; studies using TMRM and PMPI,lowered ΔΨ
same,ATP production,human keratinocytes [2],significant decrease
same,basal respiration,human keratinocytes [2],significant decrease
same,rate of oxygen consumption,human keratinocytes [2],decreased rate of oxygen consumption
same,BAX dimerization,BAX,caused BAX dimerization
